Among the data in PubChem BioAssay AID2060511 (Molecular Pharmacology Branch, DTP, NCI, 2025) are viability, T/C and IC50 values, retold here.

In this experiment the test system is 422866-222-R5-J1-PDC spheroids with HUVEC/MSC, viability. The experiment can be described thus: Anticancer human tumor 422866-222-R5-J1-PDC patient-derived pancreatic adenocarcinoma cell line growth inhibition [GQUAD]. As to conditions: for viability, T/C: stronger effect = lower value; for IC50: curve of compound. The source says: DNA G-quadruplex Stabilizer Agents in Combinations in Complex Spheroids
A high-throughput screen of multi-cell type tumor spheroids was designed to identify active combinations of DNA G-quadruplex stabilizer agents and targeted small molecules. Complex spheroids include a stromal component modeled by human endothelial cells (HUVEC) and fibroblasts modeled by human mesenchymal stem cells (MSCs). The concentration ranges selected for each drug and investigational agent were based upon clinically achievable concentrations if the clinical Cmax of the agent was known.
Compounds. The drugs and investigational agents: pidnarulex (CX-5461; NSC782164), APTO-253 (NSC789042), BRACO-19 (NSC847499), peposertib (NSC802822), ceralasertib (NSC780249), elimusertib (NSC800525), camonsertib (NSC841442), AZD-1390 (NSC803789), olaparib (NSC753686), talazoparib (NSC767125), ART-558 (NSC835418), sotorasib (NSC818433), MRTX-1133 (NSC836407), SN-38 (NSC673596), topotecan (NSC609699), etoposide (NSC141540), doxorubicin (NSC123127), gemcitabine (NSC613327), 5-fluorouracil (NSC19893), paclitaxel (NSC125973), vemurafenib (NSC761431), panobinostat (NSC761190), R-306465 (JNJ-16241199; NSC773264), adavosertib (NSC754352), TP-3654 (NSC805149), carboplatin (NSC241240), KSQ-4279 (NSC840948), and staurosporine (NSC755774) were obtained from the National Cancer Institute (NCI) Developmental Therapeutics Program Chemical Repository (34). The FDA-approved anticancer drug set is available from the NCI Developmental Therapeutics Program. […] The stock solutions were prepared in dimethyl sulfoxide (DMSO, Sigma-Aldrich, St. Louis, MO, cat. D2650) at 800-fold the tested concentration and stored at -70 degrees C prior to their use. All drugs and investigational agents were tested over a range starting from a high concentration at or near the clinical Cmax and decreasing in half-log increments. If the clinical Cmax for an agent had not been determined, the highest concentration tested was 10 microM.
2.3 Cell Culture. All cells were maintained in an incubator at 37 degrees C and 5% CO2 with 95% humidity. The PDC lines were cultured according to standard operating procedures established by the NCI PDMR. All PDCs were thawed and cultured in Matrigel-coated flasks prepared with a working solution of 1X Ham's F-12 nutrient mix, without supplementation (Invitrogen, cat. 11765054), 100 U/mL penicillin-streptomycin (Invitrogen, cat. 15140122), and 2.5% Matrigel (Corning Inc., cat. 354248) for the first three passages. The 857933-349-R-J2-PDC line was cultured in 6C/Colon 1B media, which includes advanced DMEM/F-12 (Thermo Fisher Scientific, cat. 12634028), 10 mM HEPES (Thermo Fisher Scientific, cat. 15630080), 1X GlutaMAX supplement (Thermo Fisher Scientific, cat. 35050061), 0.1 mg/mL primocin (InvivoGen, cat. ant-pm-2), 10% defined fetal bovine serum, heat inactivated (HyClone Laboratories Inc., cat. SH30070.03HI), 50% L-WRN conditioned media (ATCC, cat. CRL-3276), 1.25 mM N-Acetyl-L-cysteine (Sigma-Aldrich, cat. A9165), 10 mM nicotinamide (Sigma-Aldrich, cat. N0636), 1X B-27 supplement (Thermo Fisher Scientific, cat. 17504044), 1X N-2 supplement (Thermo Fisher Scientific, cat. 17502048), 10 microM Y-27632 dihydrochloride (Tocris Bioscience, cat. 1254), and 50 ng/mL human EGF recombinant protein (Thermo Fisher Scientific, cat. PHG0311). The 485176-168-R4-J1-PDC line was cultured in Panc media, which includes all 6C/Colon 1B media components plus 100 ng/mL human FGF-10 (Thermo Fisher Scientific, cat. 100-26), 500 nM SB-431542 (Selleckchem, cat. S1067), and gastrin (Tocris, cat. 3006).
[…]

Several values for one entry are separate records, joined by “and”; a condition that tells them apart may be missing. Equal values may be shown once.
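Note: spheroids exposed to compounds for seven days before reading.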
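Throughout, for viability, T/C: percent viability relative to DMSO vehicle control taken as 100%.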

As a reminder, the viability, T/C is the ratio of treated to control. One may read the IC50 as the point on the concentration scale where inhibition reaches its midpoint. On to `C#Cc1c(F)ccc2cc(O)cc(-c3ncc4c(N5CC6CCC(C5)N6)nc(OCC56CCCN5CC(F)C6)nc4c3F)c12` (centres undefined), for which the IC50 was 1.77 µM and 2.7 µM and 1.53 µM. Moreover, the viability, T/C (compound 0.0316 µM) was 98.8% and 99.8% and 86.7%. The viability, T/C (compound 0.1 µM) was 95.5% and 91.4% and 77.4%. In addition, the viability, T/C (compound 0.316 µM) is 94.1% and 82.6% and 77.7%. The viability, T/C (compound 1 µM) was 60.1% and 79% and 57.5%. For the setting “compound 3.16 µM”, the viability, T/C is 41.3% and 43.9% and 36.5%. Moreover, the viability, T/C (compound 10 µM) was 29.2% and 39.6% and 26.7%.

Consider `C=CC(=O)N1CCN(c2nc(=O)n(-c3c(C)ccnc3C(C)C)c3nc(-c4c(O)cccc4F)c(F)cc23)C(C)C1` (centres undefined), for which the IC50 was below 0.0316 µM. Besides, the viability, T/C (compound 0.0316 µM) is 36.5% and 39.1% and 37%. Further, the viability, T/C (compound 0.1 µM) is 32.9% and 29.9% and 28.5%. Further, where the note is “compound 0.316 µM”, the viability, T/C is 26.3% and 28.8% and 27.6%. Moreover, the viability, T/C (compound 1 µM) was 27.3% and 26.2% and 23%. Further, the viability, T/C (compound 3.16 µM) was 28.3% and 28.8% and 27.6%. Moreover, the viability, T/C (compound 10 µM) was 29.3% and 30.3% and 27.3%.

Take `CC(=O)O[C@H]1C(=O)[C@@]2(C)[C@H]([C@H](OC(=O)c3ccccc3)[C@]3(O)C[C@H](OC(=O)[C@H](O)[C@@H](NC(=O)c4ccccc4)c4ccccc4)C(C)=C1C3(C)C)[C@]1(OC(C)=O)CO[C@@H]1C[C@@H]2O`: the IC50 is 1.46 µM and > 10 µM. Moreover, the viability, T/C (compound 0.0316 µM) was 96% and 75.6% and 77.1%. For the same compound, the viability, T/C (compound 0.1 µM) was 89.9% and 64.8% and 64.4%. Besides, the viability, T/C (compound 0.316 µM) was 82.1% and 66.5% and 76.9%. The viability, T/C (compound 1 µM) is 47.7% and 68.6% and 75.5%. The viability, T/C (compound 3.16 µM) is 39.7% and 75% and 67.1%.

Regarding `CC(C)(O)C1CCC(Nc2ccc3ncc(-c4cccc(C(F)(F)F)c4)n3n2)CC1` (centres undefined), the IC50 is 1 µM and 1.95 µM and 2.84 µM. For the same compound, the viability, T/C (compound 0.0316 µM) is 94.3% and 83.6% and 92%. Also, the viability, T/C (compound 0.1 µM) is 82.7% and 87.6% and 89.7%. The viability, T/C (compound 0.316 µM) is 73.7% and 75.8% and 103%. Besides, under “compound 1 µM”, the viability, T/C is 47.5% and 75.1% and 71%. Under “compound 3.16 µM”, the viability, T/C was 35% and 31.5% and 45%. Also, the viability, T/C (compound 10 µM) was 24.6% and 32.1% and 50.8%.

Consider `CC(C)n1c(=O)n(C)c2cnc3cc(F)c(-c4ccc(OCCCN5CCCCC5)nc4)cc3c21`, for which the IC50 is above 10 µM. Also, the viability, T/C (compound 0.0316 µM) is 99.2% and 87.6% and 100%. The viability, T/C (compound 0.1 µM) was 80.5% and 101% and 90.1%. The viability, T/C (compound 0.316 µM) was 110% and 104% and 113%. For the same compound, the viability, T/C (compound 1 µM) was 97.4% and 95.7% and 97.5%. The viability, T/C (compound 3.16 µM) is 85.5% and 89.8% and 90.1%. The viability, T/C (compound 10 µM) is 58.6% and 62.1% and 64.2%.

Turning to `CC1COCCN1c1cc(-c2ccnn2C)c2ccnc(-c3ccn[nH]3)c2n1` (centres undefined), the viability, T/C (compound 0.0316 µM) was 80.3% and 71.6% and 81.9%; the viability, T/C (compound 0.1 µM) was 63.1% and 61.5% and 48.7%; the viability, T/C (compound 0.316 µM) was 47.8% and 50% and 45.2%; the viability, T/C (compound 1 µM) was 45% and 40.2% and 45.6%; the viability, T/C (compound 3.16 µM) was 63.9% and 81.7% and 45%; the viability, T/C (compound 10 µM) was 81.2% and 80.8% and 88.8%.

For the compound `CC1COCCN1c1cc(C2(O)CC3CCC(C2)O3)c2cnn(-c3ccn[nH]3)c2n1` (centres undefined), the IC50 is above 10 µM. Also, the viability, T/C (compound 0.0316 µM) is 79.2% and 81.7% and 79.9%. Besides, the viability, T/C (compound 0.1 µM) was 44.1% and 40% and 47.8%. Further, where the note is “compound 0.316 µM”, the viability, T/C was 42.2% and 37.5% and 56.3%. In addition, the viability, T/C (compound 1 µM) is 57.8% and 66.2% and 79.9%. Also, the viability, T/C (compound 3.16 µM) is 89.3% and 91.2% and 80.4%. Also, where the note is “compound 10 µM”, the viability, T/C was 90.9% and 96% and 90.3%.

For the compound `CC1COCCN1c1cc(C2(S(C)(=N)=O)CC2)nc(-c2ccnc3[nH]ccc23)n1` (centres undefined), the IC50 is 2.21 µM and 2.77 µM and 3.24 µM. Besides, the viability, T/C (compound 0.0316 µM) is 81.8% and 101% and 93.1%. In addition, the viability, T/C (compound 0.1 µM) is 90.2% and 107% and 98.3%. Besides, for the setting “compound 0.316 µM”, the viability, T/C is 105% and 97.1% and 114%. Also, for the setting “compound 1 µM”, the viability, T/C was 70.9% and 82.1% and 91.5%. For the same compound, where the note is “compound 3.16 µM”, the viability, T/C is 43% and 44.8% and 50.8%. For the same compound, the viability, T/C (compound 10 µM) is 38% and 39.5% and 36.4%.

With `CCCS(=O)(=O)Nc1ccc(F)c(C(=O)c2c[nH]c3ncc(-c4ccc(Cl)cc4)cc23)c1F`, the viability, T/C was 96.7% and 101% and 93.4% (compound 0.0316 µM); 99.6% and 95.4% (2×) (compound 0.1 µM); 60% and 140% and 121% (compound 0.316 µM); 45.6% and 153% and 136% (compound 1 µM); 32.6% and 184% and 167% (compound 3.16 µM); 32.6% and 108% and 52.1% (compound 10 µM).

For `CC[C@@]1(O)C(=O)OCc2c1cc1n(c2=O)Cc2cc3c(CN(C)C)c(O)ccc3nc2-1`, the IC50 was 0.0808 µM and 0.258 µM and 0.0677 µM. In addition, the viability, T/C (compound 0.000999 µM) is 83.5% and 106% and 100%. The viability, T/C (compound 0.00316 µM) was 90.9% and 90.2% and 96.4%. In addition, the viability, T/C (compound 0.00999 µM) is 95.7% and 88.8% and 103%. Moreover, the viability, T/C (compound 0.0316 µM) is 75.4% and 74.9% and 70.9%. The viability, T/C (compound 0.0999 µM) was 45.5% and 52.7% and 40.6%. For the setting “compound 0.316 µM”, the viability, T/C was 42.4% and 50.6% and 38.1%.

Turning to `CCc1c2c(nc3ccc(O)cc13)-c1cc3c(c(=O)n1C2)COC(=O)[C@]3(O)CC`, the IC50 was < 0.000999 µM and 0.00117 µM and 0.00164 µM. In addition, under “compound 0.000999 µM”, the viability, T/C is 53.2% and 55.8% and 56.2%. Also, under “compound 0.00316 µM”, the viability, T/C is 38.6% and 47.6% and 39.6%. Further, the viability, T/C (compound 0.00999 µM) is 42.5% and 37.8% and 43.5%. Further, where the note is “compound 0.0316 µM”, the viability, T/C is 36.8% and 46.3% and 25.2%. Also, the viability, T/C (compound 0.0999 µM) is 33.3% and 47.4% and 35.1%. Moreover, for the setting “compound 0.316 µM”, the viability, T/C was 34% and 43.8% and 29.1%.
